{
  "source": "patent US3963579A",
  "about": "“Microbiological process for the production of pepstatins” (Sanraku-Ocean Co., Ltd., priority 1973, dated 1976)",
  "origin": "cited, not measured here",
  "conditions": "clinical, reported",
  "note": "Square brackets hold non-standard residues; d marks the D form. Peptide text beside a SMILES is read from it. * marks the point of attachment. Sta = CC(C)C[C@H](N)[C@@H](O)CC(=O)O; Isovaleryl = CC(C)CC(=O)*",
  "data": [
    {"smiles": "CC(C)CC(=O)N[C@H](C(=O)N[C@H](C(=O)N[C@@H](CC(C)C)[C@@H](O)CC(=O)N[C@@H](C)C(=O)N[C@@H](CC(C)C)[C@@H](O)CC(=O)O)C(C)C)C(C)C", "note": "[pepstatin A] (Isovaleryl-VV[Sta]A[Sta]-OH)", "values": [
      {"measurement": "effect on gastric ulcers clinically", "result": "takes effect on gastric ulcers clinically"}
    ]}
  ]
}
